Measurements: the supplement of paper PMC10627819

What was measured:
[1] = test system: B. subtilis 168; assay: fitness (endpoint OD595 vs no drug) (fraction); higher = more growth
In short: (§1)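 With the first reading as background, OD595 was measured every 30 min for 14 h in 384-well plates kept at 37 °C and inoculated at OD595 0.01. TSB, LB Lennox or CY was the medium. Fitness is the optical density at the transition into stationary phase divided by the robust mean of no-drug control wells, with a cap of 1.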

[2] = test system: S. aureus Newman; assay: as above
In short: as §1

[3] = test system: S. pneumoniae D39V; assay: as above; conditions: one replicate
In short: as §1

[4] = test system: B. subtilis 168; assay: Bliss interaction score (quartile over a dose matrix) (fitness difference); higher = more antagonism (negative = synergy)
In short: (§2)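 Values were capped at 1 after dividing OD595 at stationary-phase entry by the plate's robust no-drug mean. This ratio is fitness, and single-drug fitness was inferred from the combination data. The Bliss score is observed minus product-expected fitness, given as quartiles over technical, biological and donor/recipient replicates.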

[5] = test system: S. aureus DSM 20231; assay: as above
In short: as §2

[6] = test system: S. aureus Newman; assay: as above
In short: as §2

[7] = test system: S. pneumoniae D39V; assay: as above
In short: as §2

[8] = first compound 0.125 µg/mL, partner 4 µg/mL
[9] = first compound 0.125 µg/mL, partner 8 µg/mL
[10] = first compound 0.25 µg/mL, partner 4 µg/mL
[11] = first compound 0.25 µg/mL, partner 8 µg/mL
[12] = first compound 0.5 µg/mL, partner 4 µg/mL
[13] = first compound 0.5 µg/mL, partner 8 µg/mL
[14] = first compound 0.25 µg/mL, partner 16 µg/mL
[15] = first compound 0.5 µg/mL, partner 16 µg/mL
[16] = first compound 1 µg/mL, partner 4 µg/mL
[17] = first compound 1 µg/mL, partner 8 µg/mL
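For Bliss interaction score (quartile over a dose matrix) in this document: first quartile when negative (synergy) and third quartile when positive (antagonism).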

CC1=C(C(=O)O)N2C(=O)[C@@H](NC(=O)[C@H](N)c3ccccc3)[C@H]2SC1 [Cephalexin] + CN(N=O)C(=O)N[C@@H](C=O)[C@@H](O)[C@H](O)[C@H](O)CO [Streptozotocin]
fitness ([1]; first compound 0.125 µg/mL, partner 0.15 µg/mL, one replicate): 0.918
fitness ([1]; first compound 0.125 µg/mL, partner 0.3 µg/mL, one replicate): ≥ 1
fitness ([1]; first compound 0.125 µg/mL, partner 0.6 µg/mL, one replicate): 0.952
fitness ([1]; first compound 0.25 µg/mL, partner 0.15 µg/mL, one replicate): 0.932
fitness ([1]; first compound 0.25 µg/mL, partner 0.3 µg/mL, one replicate): ≥ 1
fitness ([1]; first compound 0.25 µg/mL, partner 0.6 µg/mL, one replicate): 0.956
fitness ([1]; first compound 0.5 µg/mL, partner 0.15 µg/mL, one replicate): ≥ 1
fitness ([1]; first compound 0.5 µg/mL, partner 0.3 µg/mL, one replicate): ≥ 1
fitness ([1]; first compound 0.5 µg/mL, partner 0.6 µg/mL, one replicate): 0.967
fitness ([2]; first compound 0.25 µg/mL, partner 0.15 µg/mL): 0.874
fitness ([2]; first compound 0.25 µg/mL, partner 0.3 µg/mL): 0.728
fitness ([2]; first compound 0.25 µg/mL, partner 0.6 µg/mL): 0.6
fitness ([2]; first compound 0.5 µg/mL, partner 0.15 µg/mL): 0.863
fitness ([2]; first compound 0.5 µg/mL, partner 0.3 µg/mL): 0.735
fitness ([2]; first compound 0.5 µg/mL, partner 0.6 µg/mL): 0.591
fitness ([2]; first compound 1 µg/mL, partner 0.15 µg/mL): 0.876
fitness ([2]; first compound 1 µg/mL, partner 0.3 µg/mL): 0.786
fitness ([2]; first compound 1 µg/mL, partner 0.6 µg/mL): 0.696
fitness ([3]; first compound 0.125 µg/mL, partner 1.2 µg/mL): 0.878
fitness ([3]; first compound 0.125 µg/mL, partner 2.4 µg/mL): 0.922
fitness ([3]; first compound 0.125 µg/mL, partner 4.8 µg/mL): 0.909
fitness ([3]; first compound 0.25 µg/mL, partner 1.2 µg/mL): 0.928
fitness ([3]; first compound 0.25 µg/mL, partner 2.4 µg/mL): 0.965
fitness ([3]; first compound 0.25 µg/mL, partner 4.8 µg/mL): 0.901
fitness ([3]; first compound 0.5 µg/mL, partner 1.2 µg/mL): 0.953
fitness ([3]; first compound 0.5 µg/mL, partner 2.4 µg/mL): 0.968
fitness ([3]; first compound 0.5 µg/mL, partner 4.8 µg/mL): 0.922
fitness ([3]; first compound 1 µg/mL, partner 1.2 µg/mL): 0.218
fitness ([3]; first compound 1 µg/mL, partner 2.4 µg/mL): 0.313
fitness ([3]; first compound 1 µg/mL, partner 4.8 µg/mL): 0.0033
fitness ([3]; first compound 2 µg/mL, partner 1.2 µg/mL): 0.0084
fitness ([3]; first compound 2 µg/mL, partner 2.4 µg/mL): 0.0518
fitness ([3]; first compound 2 µg/mL, partner 4.8 µg/mL): 0
fitness ([3]; first compound 4 µg/mL, partner 1.2 µg/mL): 0.0421
fitness ([3]; first compound 4 µg/mL, partner 2.4 µg/mL): 0.0145
fitness ([3]; first compound 4 µg/mL, partner 4.8 µg/mL): 0
Bliss interaction score [4]: 0.094
Bliss interaction score [5]: -0.0755
Bliss interaction score [6]: 0.0503
Bliss interaction score [7]: -0.0789

CC1=C(C(=O)O)N2C(=O)[C@@H](NC(=O)[C@H](N)c3ccccc3)[C@H]2SC1 [Cephalexin] + CN[C@@H]1[C@H](O)[C@H](NC)[C@H]2O[C@@]3(O)C(=O)C[C@@H](C)O[C@H]3O[C@@H]2[C@H]1O [Spectinomycin]
fitness ([1]; first compound 0.125 µg/mL, partner 2 µg/mL): ≥ 1
fitness [1, 8]: 0.981
fitness [1, 9]: 0.905
fitness ([1]; first compound 0.25 µg/mL, partner 2 µg/mL): 0.933
fitness [1, 10]: 0.978
fitness [1, 11]: 0.928
fitness ([1]; first compound 0.5 µg/mL, partner 2 µg/mL): 0.978
fitness [1, 12]: ≥ 1
fitness [1, 13]: 0.884
fitness [2, 10]: 0.904
fitness [2, 11]: 0.982
fitness [2, 14]: 0.949
fitness [2, 12]: 0.951
fitness [2, 13]: ≥ 1
fitness [2, 15]: 0.957
fitness ([2]; first compound 0.5 µg/mL, partner 32 µg/mL, one replicate): 0.681
fitness ([2]; first compound 0.5 µg/mL, partner 64 µg/mL, one replicate): 0.127
fitness [2, 16]: 0.951
fitness [2, 17]: ≥ 1
fitness ([2]; first compound 1 µg/mL, partner 16 µg/mL): ≥ 1
fitness ([2]; first compound 1 µg/mL, partner 32 µg/mL, one replicate): 0.713
fitness ([2]; first compound 1 µg/mL, partner 64 µg/mL, one replicate): 0.071
fitness ([2]; first compound 2 µg/mL, partner 16 µg/mL, one replicate): 0.969
fitness ([2]; first compound 2 µg/mL, partner 32 µg/mL, one replicate): 0.651
fitness ([2]; first compound 2 µg/mL, partner 64 µg/mL, one replicate): 0.1
fitness [3, 8]: 0.874
fitness [3, 9]: 0.892
fitness ([3]; first compound 0.125 µg/mL, partner 16 µg/mL): 0.875
fitness [3, 10]: 0.91
fitness [3, 11]: 0.884
fitness [3, 14]: 0.82
fitness [3, 12]: 0.993
fitness [3, 13]: 0.908
fitness [3, 15]: 0.859
fitness [3, 16]: 0.474
fitness [3, 17]: 0.587
fitness ([3]; first compound 2 µg/mL, partner 4 µg/mL): 0.0025
fitness ([3]; first compound 2 µg/mL, partner 8 µg/mL): 0.0549
fitness ([3]; first compound 4 µg/mL, partner 4 µg/mL): 0
fitness ([3]; first compound 4 µg/mL, partner 8 µg/mL): 0.0577
Bliss interaction score [4]: 0.0659
Bliss interaction score [5]: 0.0503
Bliss interaction score [6]: 0.0839
Bliss interaction score [7]: 0.0578
